The source of these data is patent publication US20240390432A1, “ENGINEERED VECTORS AND ORGANISMS CONTAINING THE SAME FOR ISOFLAVONE CONVERSION IN THE GUT” (Board of Regents, The University of Texas System, priority 2021, published 2024).

For series [1] the following is noted: Equol-producing postmenopausal women, purified supplement; cited from earlier work.
The target of the next series is ERbeta (Homo sapiens, UniProt Q92731). The conditions noted are these: unlike products activating ERalpha, androgen, glucocorticoid, progesterone, mineralocorticoid receptors; cited from earlier work.
Series [2] in a line: Serum Equol levels of mice given soy hydrogel and probiotic via drinking water. The note with it: mouse, oral, positive control: Equol supplemented directly in hydrogel, no Nissle strains. The class given is in vivo. How it is done:
Serum Equol levels of the mice were measured after 1 week of consumption of a low or high soy content supplement (1× or 8× soy loaded hydrogel). […] Two sets of negative controls were provided as reference. […] In addition, a positive control group consumed Equol that was supplement directly in the hydrogel to reveal, as expected, a very high elevation in serum Equol concentration reaching almost 5 μM without the addition of the engineered Nissle P1 and Nissle P2 strains.

Structures are written as SMILES.

ERbeta, sequence (Q92731 whole entry, species assumed): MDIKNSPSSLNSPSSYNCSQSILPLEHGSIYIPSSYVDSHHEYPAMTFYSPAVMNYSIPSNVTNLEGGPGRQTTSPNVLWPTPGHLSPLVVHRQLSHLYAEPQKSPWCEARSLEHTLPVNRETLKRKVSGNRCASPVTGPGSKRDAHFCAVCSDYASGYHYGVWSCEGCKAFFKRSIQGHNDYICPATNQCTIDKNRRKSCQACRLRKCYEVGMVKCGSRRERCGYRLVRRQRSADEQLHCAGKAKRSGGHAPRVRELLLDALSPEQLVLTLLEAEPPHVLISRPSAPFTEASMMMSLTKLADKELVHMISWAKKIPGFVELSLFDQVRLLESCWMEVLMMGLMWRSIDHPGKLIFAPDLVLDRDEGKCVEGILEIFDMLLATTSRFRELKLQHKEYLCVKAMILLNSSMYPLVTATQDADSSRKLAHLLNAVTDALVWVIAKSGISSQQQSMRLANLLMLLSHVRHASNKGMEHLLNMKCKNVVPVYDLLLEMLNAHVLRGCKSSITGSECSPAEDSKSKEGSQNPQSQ

As for `O=c1c(-c2ccc(O)cc2)coc2cc(O)ccc12` [Daidzein], in series [1], the “effect on serum LDL-C and C-reactive protein” value is on record as “not seen”.

`Oc1ccc([C@H]2COc3cc(O)ccc3C2)cc1` [Equol]: the receptor selectivity result at ERbeta is “selective agonist for ERbeta”. In series [2], the concentration at 1 week is approximately 5 µM.
